Source: US9216985B2, “3-aryl-2-((arylamino)methyl)quinazolin-4-(3H)-ones” (SciFluor Life Sciences, Inc., priority 2013, dated 2015)

What was measured:
PI3Kα = PI3Kα (Homo sapiens (Human), UniProt P42336); experiment: Homogeneous Time Resolved Fluorescence (HTRF) lipid kinase assay; format: biochemical; conditions: HTRF format, 10 μM ATP
Description: (§1) The ability of the compounds of the present invention to inhibit the activity of four PI3K isoforms, PI3Kα, PI3Kβ, PI3Kγ, and PI3Kδ, were determined using a commercially available lipid kinase assay run in Homogeneous Time Resolved Fluorescence (HTRF) format.
(§2) Assay principle: The PIP3 product is detected by displacement of biotin-PIP3 from an energy transfer complex consisting of Europium labeled anti-GST monoclonal antibody, a GST-tagged pleckstrin homology (PH) domain, biotinylated PIP3 and Streptavidin-Allophycocyanin (APC). Excitation of Europium in the complex results in an energy transfer to the APC and a fluorescent emission at 665 nm. The PIP3 product formed by PI 3-Kinase(h) activity displaces biotin-PIP3 from the complex resulting in a loss of energy transfer and thus a decrease in signal.
(§3) This is a 3-step reaction: First, the kinase reaction with PIP2 substrate is carried out in the presence of ATP, and the reaction is quenched with stop Solution, and then finally detect by adding Detection Mixture followed by incubation.
(§4) Assay Buffer: HEPES 50 mM (pH7.0), NaN3 0.02%, BSA 0.01%, Orthovanadate 0.1 mM, 1% DMSO.
(§5) Detection buffer: HEPES 10 mM (pH7.0), BSA 0.02%, KF 0.16 M, EDTA 4 mM.
(§6) Substrate: […] PIP2 substrate (PI(4,5)P2)
(§7) ATP: 10 μM ATP under standard conditions
(§8) Control Inhibitor: PI-103
(§9) • 1. Prepare substrate in freshly prepared Reaction Buffer • 2. Deliver kinase into the substrate solution and gently mix • 3. Deliver compounds in 100% DMSO into the kinase reaction mixture by Acoustic technology (Echo550; nanolitter range), incubate for 10 min at room temp • 4. Deliver ATP into the reaction mixture to initiate the reaction • 5. Incubate for 30 min at 30° C. • 6. Quench the reaction with Stop Solution. • 7. Add Detection Mixture, and incubate for overnight. • 8. Measure HTRF: Ex=320 nm, ratio of Em=615 nm and Em=665 nm. Data Analysis:
(§10) The emission ratio is converted into μM PIP3 production based on PIP3 standard curves. The nonlinear regression to obtain the standard curve and IC50 values are performed using Graphpad Prism software.

PI3Kβ = PI3Kβ (Homo sapiens (Human), UniProt P42338); experiment: as above; format: biochemical; conditions: HTRF format, 10 μM ATP
PI3Kβ, sequence (P42338 whole entry): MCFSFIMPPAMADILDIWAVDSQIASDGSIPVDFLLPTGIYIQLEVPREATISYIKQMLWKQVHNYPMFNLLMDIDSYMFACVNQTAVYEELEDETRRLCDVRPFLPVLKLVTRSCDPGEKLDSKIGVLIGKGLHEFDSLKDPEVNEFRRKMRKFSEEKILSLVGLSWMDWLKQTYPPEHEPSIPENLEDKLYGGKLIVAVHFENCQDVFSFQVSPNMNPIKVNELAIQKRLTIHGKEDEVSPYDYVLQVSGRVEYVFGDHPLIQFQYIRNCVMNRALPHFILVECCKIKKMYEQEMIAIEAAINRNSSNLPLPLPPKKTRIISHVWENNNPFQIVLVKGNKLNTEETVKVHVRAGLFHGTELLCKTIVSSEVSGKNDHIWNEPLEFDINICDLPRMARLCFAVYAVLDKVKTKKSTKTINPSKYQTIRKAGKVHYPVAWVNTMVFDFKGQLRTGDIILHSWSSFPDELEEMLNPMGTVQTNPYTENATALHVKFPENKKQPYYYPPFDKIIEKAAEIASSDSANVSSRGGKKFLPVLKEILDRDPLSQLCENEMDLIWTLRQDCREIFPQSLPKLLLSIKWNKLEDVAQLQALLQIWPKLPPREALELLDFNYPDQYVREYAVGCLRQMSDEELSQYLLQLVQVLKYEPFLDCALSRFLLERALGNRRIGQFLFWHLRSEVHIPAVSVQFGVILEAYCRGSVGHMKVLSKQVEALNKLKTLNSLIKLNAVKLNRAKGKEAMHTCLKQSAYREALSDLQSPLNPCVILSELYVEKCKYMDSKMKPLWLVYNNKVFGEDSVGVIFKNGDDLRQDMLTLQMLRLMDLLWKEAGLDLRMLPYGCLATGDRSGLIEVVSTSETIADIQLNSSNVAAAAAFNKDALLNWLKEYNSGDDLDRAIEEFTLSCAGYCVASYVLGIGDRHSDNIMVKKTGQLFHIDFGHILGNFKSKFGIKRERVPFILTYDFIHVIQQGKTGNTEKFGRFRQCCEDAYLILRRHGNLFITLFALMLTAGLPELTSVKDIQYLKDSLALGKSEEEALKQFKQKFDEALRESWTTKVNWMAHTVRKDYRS
PI3Kβ, sequence (P27986 whole entry partner): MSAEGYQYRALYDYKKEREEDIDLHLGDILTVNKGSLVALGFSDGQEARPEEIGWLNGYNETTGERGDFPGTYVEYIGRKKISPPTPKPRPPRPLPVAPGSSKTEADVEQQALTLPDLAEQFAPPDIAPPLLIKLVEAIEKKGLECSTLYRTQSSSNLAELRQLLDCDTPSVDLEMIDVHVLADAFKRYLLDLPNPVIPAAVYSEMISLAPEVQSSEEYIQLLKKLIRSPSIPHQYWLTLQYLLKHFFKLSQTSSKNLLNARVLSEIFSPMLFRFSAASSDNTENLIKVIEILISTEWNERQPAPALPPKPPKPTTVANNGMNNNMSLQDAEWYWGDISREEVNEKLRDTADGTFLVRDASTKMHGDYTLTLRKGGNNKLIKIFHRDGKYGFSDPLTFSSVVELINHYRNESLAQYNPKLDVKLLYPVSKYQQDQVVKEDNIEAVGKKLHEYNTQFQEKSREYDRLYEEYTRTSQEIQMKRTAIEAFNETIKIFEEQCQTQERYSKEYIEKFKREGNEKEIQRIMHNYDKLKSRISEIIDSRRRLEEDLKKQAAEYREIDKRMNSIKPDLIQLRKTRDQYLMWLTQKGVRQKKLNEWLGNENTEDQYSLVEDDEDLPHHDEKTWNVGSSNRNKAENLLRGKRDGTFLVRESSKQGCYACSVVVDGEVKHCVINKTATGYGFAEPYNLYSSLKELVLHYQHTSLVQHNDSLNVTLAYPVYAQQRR
Description: as §1, §2, §3, §4, §5, §6, §7, §8, §9, §10

PI3Kγ = PI3Kγ (Homo sapiens (Human), UniProt P48736); experiment: as above; format: biochemical; conditions: HTRF format, 10 μM ATP
PI3Kγ, sequence (P48736 whole entry): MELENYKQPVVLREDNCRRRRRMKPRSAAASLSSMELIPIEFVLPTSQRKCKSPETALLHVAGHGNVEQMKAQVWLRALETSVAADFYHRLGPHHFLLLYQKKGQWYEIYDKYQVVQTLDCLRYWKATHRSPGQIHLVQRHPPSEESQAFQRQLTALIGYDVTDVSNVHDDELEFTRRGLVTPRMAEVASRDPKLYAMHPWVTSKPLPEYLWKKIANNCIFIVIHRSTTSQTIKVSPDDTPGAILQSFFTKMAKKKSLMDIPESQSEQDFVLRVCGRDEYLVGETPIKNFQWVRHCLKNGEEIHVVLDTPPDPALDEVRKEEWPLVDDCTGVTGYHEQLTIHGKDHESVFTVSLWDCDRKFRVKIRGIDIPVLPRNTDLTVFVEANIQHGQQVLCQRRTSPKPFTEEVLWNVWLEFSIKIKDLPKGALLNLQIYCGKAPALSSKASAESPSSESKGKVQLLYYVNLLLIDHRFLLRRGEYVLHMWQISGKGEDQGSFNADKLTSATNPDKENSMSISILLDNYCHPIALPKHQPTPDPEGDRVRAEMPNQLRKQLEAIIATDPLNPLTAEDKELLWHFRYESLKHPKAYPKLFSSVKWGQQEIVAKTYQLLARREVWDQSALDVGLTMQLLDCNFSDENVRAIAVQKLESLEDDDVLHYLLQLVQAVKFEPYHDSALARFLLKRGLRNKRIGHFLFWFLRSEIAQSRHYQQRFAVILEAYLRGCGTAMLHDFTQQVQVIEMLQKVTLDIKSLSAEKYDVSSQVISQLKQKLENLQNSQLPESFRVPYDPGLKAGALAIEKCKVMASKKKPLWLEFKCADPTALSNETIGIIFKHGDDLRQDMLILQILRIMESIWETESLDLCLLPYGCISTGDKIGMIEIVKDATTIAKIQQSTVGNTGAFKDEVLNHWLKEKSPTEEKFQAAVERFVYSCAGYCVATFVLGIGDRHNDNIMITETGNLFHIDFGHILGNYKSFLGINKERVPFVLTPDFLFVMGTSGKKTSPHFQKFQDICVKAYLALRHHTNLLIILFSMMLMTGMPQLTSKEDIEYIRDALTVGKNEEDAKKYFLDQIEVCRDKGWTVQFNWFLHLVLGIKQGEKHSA
Description: as §1, §2, §3, §4, §5, §6, §7, §8, §9, §10

PI3Kδ = PI3Kδ (Homo sapiens (Human), UniProt O00329); experiment: as above; format: biochemical; conditions: HTRF format, 10 μM ATP
PI3Kδ, sequence (O00329 whole entry): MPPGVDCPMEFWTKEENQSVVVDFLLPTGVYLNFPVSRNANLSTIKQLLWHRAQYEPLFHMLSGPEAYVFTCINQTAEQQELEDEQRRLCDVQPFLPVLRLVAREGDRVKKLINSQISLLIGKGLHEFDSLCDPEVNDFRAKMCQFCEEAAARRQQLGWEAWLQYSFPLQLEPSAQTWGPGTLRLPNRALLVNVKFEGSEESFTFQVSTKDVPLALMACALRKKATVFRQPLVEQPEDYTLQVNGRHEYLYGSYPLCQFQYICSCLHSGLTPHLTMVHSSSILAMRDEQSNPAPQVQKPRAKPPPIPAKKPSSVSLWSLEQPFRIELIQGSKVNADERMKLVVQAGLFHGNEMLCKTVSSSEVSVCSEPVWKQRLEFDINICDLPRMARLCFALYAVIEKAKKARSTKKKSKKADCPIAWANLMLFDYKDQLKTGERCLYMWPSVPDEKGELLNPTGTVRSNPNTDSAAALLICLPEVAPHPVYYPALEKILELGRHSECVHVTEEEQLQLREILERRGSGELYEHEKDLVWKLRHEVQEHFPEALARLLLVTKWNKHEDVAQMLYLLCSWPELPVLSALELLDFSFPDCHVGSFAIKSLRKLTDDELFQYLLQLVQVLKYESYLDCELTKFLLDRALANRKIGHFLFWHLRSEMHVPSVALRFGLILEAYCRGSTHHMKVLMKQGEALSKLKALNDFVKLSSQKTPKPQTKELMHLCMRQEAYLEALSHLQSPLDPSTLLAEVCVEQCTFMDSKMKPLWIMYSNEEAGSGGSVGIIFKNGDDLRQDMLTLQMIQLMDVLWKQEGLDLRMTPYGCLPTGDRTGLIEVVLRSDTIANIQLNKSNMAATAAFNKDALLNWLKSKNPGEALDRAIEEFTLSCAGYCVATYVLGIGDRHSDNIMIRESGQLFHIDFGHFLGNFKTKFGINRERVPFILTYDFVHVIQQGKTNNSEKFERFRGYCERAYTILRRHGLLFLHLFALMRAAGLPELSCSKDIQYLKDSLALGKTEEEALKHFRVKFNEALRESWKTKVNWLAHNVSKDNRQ
PI3Kδ, sequence (P27986 whole entry partner): as the sequence (P27986 whole entry partner) above
Description: as §1, §2, §3, §4, §5, §6, §7, §8, §9, §10

PI3Kα human fl = PI3Kα human fl (Homo sapiens (Human), UniProt P42336); experiment: Reporter displacement assay; format: binding
Description: (§11) The ability of the compounds of the present invention to inhibit the activity of four PI3K isoforms, PI3Kα, PI3Kβ, PI3Kγ, and PI3Kδ, were determined using the commercially available reporter displacement assay that is based on reporter probes that are designed to bind to the site of interest of the target protein. The proximity between reporter and protein results in the emission of an optical signal. Compounds that bind to the same site as the reporter probe displace the probe, causing signal diminution. Reporter displacement is measured over time after addition of compounds at various concentrations. The assay conditions were:
(§12) Assay plates: 384 well U bottom, PP, black, low volume (Corning, 3676)
(§13) Full probe displacement: absence of enzyme and compound
(§14) Full probe binding: absence of compound
(§15) Reaction buffer: 20 mM Mops, pH 7.01 mM DTT, 0.01% Tween 20

PI3Kβ human (1-1070) = PI3Kβ human (1-1070) (Homo sapiens (Human), UniProt P42338); experiment: Reporter displacement assay; format: binding
Description: as §11, §12, §13, §14, §15

PI3Kγ human (144-1102) = PI3Kγ human (144-1102) (Homo sapiens (Human), UniProt P48736); experiment: Reporter displacement assay; format: binding
Description: as §11, §12, §13, §14, §15

PI3Kδ human fl = PI3Kδ human fl (Homo sapiens (Human), UniProt O00329); experiment: Reporter displacement assay; format: binding
Description: as §11, §12, §13, §14, §15

PI3Kα, sequence (P42336 whole entry, canonical isoform): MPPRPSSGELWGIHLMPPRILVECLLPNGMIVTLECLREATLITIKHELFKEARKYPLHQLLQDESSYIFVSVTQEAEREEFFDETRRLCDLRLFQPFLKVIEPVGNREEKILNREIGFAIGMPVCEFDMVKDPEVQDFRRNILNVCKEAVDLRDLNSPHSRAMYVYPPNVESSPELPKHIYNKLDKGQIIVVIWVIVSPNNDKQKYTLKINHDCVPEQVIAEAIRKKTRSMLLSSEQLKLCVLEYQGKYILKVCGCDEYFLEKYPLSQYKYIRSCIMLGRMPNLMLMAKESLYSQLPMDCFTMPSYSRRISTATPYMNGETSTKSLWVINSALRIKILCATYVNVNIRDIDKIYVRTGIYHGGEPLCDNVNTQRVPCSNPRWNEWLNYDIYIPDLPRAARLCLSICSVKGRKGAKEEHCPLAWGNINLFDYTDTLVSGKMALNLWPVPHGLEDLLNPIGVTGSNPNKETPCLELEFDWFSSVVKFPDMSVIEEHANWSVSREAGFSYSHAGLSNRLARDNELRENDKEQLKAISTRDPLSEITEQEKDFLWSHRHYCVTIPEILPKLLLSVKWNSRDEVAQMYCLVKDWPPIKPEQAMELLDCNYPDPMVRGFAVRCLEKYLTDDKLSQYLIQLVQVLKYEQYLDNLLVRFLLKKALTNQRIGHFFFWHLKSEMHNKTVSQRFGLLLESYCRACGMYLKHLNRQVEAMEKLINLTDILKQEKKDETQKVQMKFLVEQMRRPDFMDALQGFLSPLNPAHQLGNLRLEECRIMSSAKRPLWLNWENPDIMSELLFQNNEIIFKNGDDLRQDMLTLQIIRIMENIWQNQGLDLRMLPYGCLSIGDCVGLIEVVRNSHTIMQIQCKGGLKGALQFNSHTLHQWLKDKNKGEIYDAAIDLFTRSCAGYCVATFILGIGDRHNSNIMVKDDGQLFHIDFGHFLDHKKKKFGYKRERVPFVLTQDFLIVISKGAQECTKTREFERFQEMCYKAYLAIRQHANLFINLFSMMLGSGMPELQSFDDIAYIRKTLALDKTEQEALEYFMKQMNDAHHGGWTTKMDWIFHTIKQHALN
PI3Kα, sequence (P27986 whole entry partner, canonical isoform): as the sequence (P27986 whole entry partner) above

## C[C@H](Nc1ncnc2[nH]ccc12)c1nc2cccc(Cl)c2c(=O)n1-c1cccc(OCC(F)(F)F)c1 [Compound 20A, (S)-2-(1-((7H-pyrrolo[2,3-d]pyrimidin-4-yl)amino)ethyl)-5-chloro-3-(3-(2,2,2-trifluoroethoxy)phenyl)quinazolin-4(3H)-one]
PI3Kα
  IC50: 4100 nM
PI3Kβ
  IC50: 1100 nM
PI3Kγ
  IC50: 460 nM
PI3Kδ
  IC50: 10 nM

## C[C@H](Nc1ncnc2[nH]ccc12)c1nc2cccc(F)c2c(=O)n1-c1ccc(OCC(F)(F)F)cc1 [Compound 15A, (S)-2-(1-((7H-pyrrolo[2,3-d]pyrimidin-4-yl)amino)ethyl)-5-fluoro-3-(4-(2,2,2-trifluoroethoxy)phenyl)quinazolin-4(3H)-one]
PI3Kα
  IC50: 9700 nM
PI3Kβ
  IC50: 7300 nM
PI3Kγ
  IC50: 740 nM
PI3Kδ
  IC50: 9 nM

## CC[C@H](Nc1ncnc2[nH]ccc12)c1nc2cccc(F)c2c(=O)n1-c1ccccc1 [Compound 1A, (S)-2-(1-((7H-pyrrolo[2,3-d]pyrimidin-4-yl)amino)propyl)-5-fluoro-3-phenylquinazolin-4(3H)-one]
PI3Kα
  IC50: 3700 nM
PI3Kβ
  IC50: 650 nM
PI3Kγ
  IC50: 1200 nM
PI3Kδ
  IC50: 8 nM

## C[C@H](Nc1ncnc2[nH]ccc12)c1nc2cccc(F)c2c(=O)n1-c1cccc(OCC(F)(F)C(F)(F)F)c1 [Compound 19A, (S)-2-(1-((7H-pyrrolo[2,3-d]pyrimidin-4-yl)amino)ethyl)-5-fluoro-3-(3-(2,2,3,3,3-pentafluoropropoxy)phenyl)quinazolin-4(3H)-one]
PI3Kα
  IC50: > 10000 nM
PI3Kβ
  IC50: > 10000 nM
PI3Kγ
  IC50: 4500 nM
PI3Kδ
  IC50: 190 nM

## CC[C@H](Nc1ncnc2[nH]cnc12)c1nc2cccc(F)c2c(=O)n1-c1cccc(CC(F)(F)F)c1 [Compound 6A, (S)-2-(1-((9H-purin-6-yl)amino)propyl)-5-fluoro-3-(3-(2,2,2-trifluoroethyl)phenyl)quinazolin-4(3H)-one]
PI3Kα
  IC50: 15000 nM
PI3Kβ
  IC50: 3100 nM
PI3Kγ
  IC50: 300 nM
PI3Kδ
  IC50: 20 nM

## O=c1c2c(F)cccc2nc([C@H](CC(F)(F)F)Nc2ncnc3[nH]cnc23)n1-c1ccccc1 [Compound 2A, (S)-2-(1-((9H-purin-6-yl)amino)-3,3,3-trifluoropropyl)-5-fluoro-3-phenylquinazolin-4(3H)-one]
PI3Kβ
  IC50: 3900 nM
PI3Kγ
  IC50: 1800 nM
PI3Kδ
  IC50: 80 nM

## C[C@H](Nc1ncnc2[nH]ccc12)c1nc2cccc(F)c2c(=O)n1-c1cccc(OCC(F)F)c1 [Compound 22A, (S)-2-(1-((7H-pyrrolo[2,3-d]pyrimidin-4-yl)amino)ethyl)-3-(3-(2,2-difluoroethoxy)phenyl)-5-fluoroquinazolin-4(3H)-one]
PI3Kα human fl
  IC50: 9800 nM
PI3Kβ human (1-1070)
  IC50: 2100 nM
PI3Kγ human (144-1102)
  IC50: 1200 nM
PI3Kδ human fl
  IC50: 20 nM

## CC[C@H](Nc1ncnc2[nH]ccc12)c1nc2cccc(F)c2c(=O)n1-c1ccc(OCC(F)(F)F)cc1 [Compound 16A, (S)-2-(1-((7H-pyrrolo[2,3-d]pyrimidin-4-yl)amino)propyl)-5-fluoro-3-(4-(2,2,2-trifluoroethoxy)phenyl)quinazolin-4(3H)-one]
PI3Kβ
  IC50: 10500 nM
PI3Kγ
  IC50: 5400 nM
PI3Kδ
  IC50: 90 nM

## CC[C@H](Nc1ncnc2[nH]ccc12)c1nc2cccc(F)c2c(=O)n1-c1cccc(OCC(F)(F)F)c1 [Compound 11A, (S)-2-(1-((7H-pyrrolo[2,3-d]pyrimidin-4-yl)amino)propyl)-5-fluoro-3-(3-(2,2,2-trifluoroethoxy)phenyl)quinazolin-4(3H)-one]
PI3Kα
  IC50: 115000 nM
PI3Kγ
  IC50: 3000 nM
PI3Kδ
  IC50: 110 nM

## CC[C@H](Nc1ncnc2[nH]cnc12)c1nc2cccc(F)c2c(=O)n1-c1cccc(OCC(F)(F)F)c1 [Compound 10A, (S)-2-(1-((9H-purin-6-yl)amino)propyl)-5-fluoro-3-(3-(2,2,2-trifluoroethoxy)phenyl)quinazolin-4(3H)-one]
PI3Kγ
  IC50: 740 nM
PI3Kδ
  IC50: 20 nM

## CC[C@H](Nc1ncnc2[nH]ccc12)c1nc2cccc(F)c2c(=O)n1-c1cccc(CC(F)(F)F)c1 [Compound 7A, (S)-2-(1-((7H-pyrrolo[2,3-d]pyrimidin-4-yl)amino)propyl)-5-fluoro-3-(3-(2,2,2-trifluoroethyl)phenyl)quinazolin-4(3H)-one]
PI3Kα
  IC50: 28000 nM
PI3Kβ
  IC50: 5800 nM
PI3Kγ
  IC50: 1300 nM
PI3Kδ
  IC50: 50 nM

## O=c1c2c(F)cccc2nc(CNc2ncnc3[nH]ccc23)n1-c1cccc(OCC(F)(F)F)c1 [Compound 21A, 2-(((7H-pyrrolo[2,3-d]pyrimidin-4-yl)amino)methyl)-5-fluoro-3-(3-(2,2,2-trifluoroethoxy)phenyl)quinazolin-4(3H)-one]
PI3Kβ
  IC50: > 10000 nM
PI3Kδ
  IC50: 2100 nM

## C[C@H](Nc1ncnc2[nH]cc(F)c12)c1nc2cccc(F)c2c(=O)n1-c1cccc(OCC(F)(F)F)c1 [Compound 17A, (S)-5-fluoro-2-(1-((5-fluoro-7H-pyrrolo[2,3-d]pyrimidin-4-yl)amino)ethyl)-3-(3-(2,2,2-trifluoroethoxy)phenyl)quinazolin-4(3H)-one]
PI3Kα
  IC50: 10000 nM
PI3Kβ
  IC50: 3400 nM
PI3Kγ
  IC50: 1200 nM
PI3Kδ
  IC50: 8 nM
